Legend:
MOC2-E6/E7 tumors = experiment: Real time PCR of Ifna4 and Ifnb1 in tumor homogenates; assay type: in vivo, C57BL/6 mice; settings: R9F/Q15L study, tumors harvested 25 days post-implantation
Protocol: Experimental animals and treatments: Female C57BL6 mice, aged 6-8 weeks, were purchased from the Jackson Laboratory, and maintained in a pathogen-free facility at the University of Michigan. All animal work were done in accordance with and approved by the Institutional Animal Care & Use Committee (IACUC) at the University of Michigan, Ann Arbor. Syngeneic squamous cell carcinoma cells were implanted subcutaneously at the neck. Tumors were measured every other day using a caliper, and the tumor volume was calculated as 0.52×length×width^2. […] To test the efficacy of the vaccine formulations, MOC2-E6/E7 cells were implanted subcutaneously on the back of the neck on day 0. […] Anti-PD-L1 (100 μg/100 μl) (clone B7H1, BioXCell, West Lebanon, N.H.) was administered through intraperitoneal injection on day 1 and 4 after each vaccination.

STING = experiment: Immunoblot of STING protein level in SOX2-expressing cells treated with inhibitors of autophagy; assay type: cell-based; settings: HEK-293T and UMSCC22b cells
Protocol: Cell culture: UMSCC22b and UMSCC47 were obtained from the U-M Head and Neck Cancer SPORE. PCI-13 was obtained from the University of Pittsburgh Head and Neck Cancer SPORE. HEK-293T was purchased from ATCC. The human HNSCC cells and HEK293T cells were maintained in complete DMEM medium. The MOC2-E6/E7 cells were obtained from Dr. David Mooney at Harvard University, the parental and derivative cell lines were cultured in 30% F12 nutrient mix (Thermo Fisher Scientific, Waltham, Mass.), 5% FBS, puromycin […], insulin (4 mg/ml), hydrocortisone (200 ug/ml), EGF (100 ug/ml) and penicillin (100 U/ml) and streptomycin […]. THP1-blue ISG cells (Cat. thp-isg, InvivoGen, San Diego, Calif.) were cultured in RPMI media supplemented with 10% FBS, 1% penicillin, streptomycin, Normocin and Zeocin. NK cells, T cells, and tumor-infiltrating lymphocytes were cultured in complete RPMI 1640 medium. Peripheral blood monocytes were separated from healthy volunteers using Ficoll-Paque gradient. Primary human NK and CD8^+ T cells were separated using a NK cell enrichment kit and a CD8^+ T cell enrichment kit, respectively (Cat. 19055 and Cat. 19053, […] Technologies Inc, Cambridge, Mass.). All cells were cultured in 37° C. incubator with 5% CO2. […] Tumors were measured every other day using a caliper, and the tumor volume was calculated as 0.52×length×width^2. […]

Row | Molecule | production of Ifna4 and Ifnb1 in tumors (MOC2-E6/E7 tumors) | SOX2-induced decrease in STING protein level (STING)
1 | cyclic GMP-AMP [cGAMP] | modest effect | 
2 | CCN(CC)CCCC(C)Nc1ccnc2cc(Cl)ccc12 (stereo not drawn) [chloroquine] |  | partially restored
3 | CO/C1=C\C(C)=C\[C@@H](C)[C@@H](O)[C@@H](C)C/C(C)=C/C=C/[C@H](OC)[C@@H]([C@@H](C)[C@@H](O)[C@H](C)[C@@]2(O)C[C@@H](O)[C@H](C)[C@@H](C(C)C)O2)OC1=O [bafilomycin A] |  | partially restored

Reference: patent US11701433B2, “Complexes for delivery of antigenic peptides” (The Regents of the University of Michigan, priority 2017, dated 2023)
